Source: the supplement of paper PMC5908809

Key:
[1] = tested on: normal NK cells expanded with K562-aAPC; assay: percent inhibition of viability; higher = more inhibition; conditions: 72 h, IL-2 2.5 ng/mL
Procedure: (§1)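 Drug sensitivity and resistance testing on K562-aAPC-expanded normal NK cells: 5 concentrations (10-fold steps over a 10,000-fold range), 72 h at 37 °C, viability by CellTiter-Glo normalised to DMSO and benzethonium chloride controls; DSS from the fitted curve.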

[2] = tested on: DERL-7 (IL-2 2.5 ng/mL); assay: as above; conditions: 72 h
[3] = tested on: IMC-1 (IL-2 20 ng/mL); assay: as above; conditions: 72 h
[4] = tested on: KAI3 (IL-2 2.5 ng/mL); assay: as above; conditions: 72 h
[5] = tested on: KHYG-1 (IL-2 2.5 ng/mL); assay: as above; conditions: 72 h
[6] = tested on: NK-92 (IL-2 2.5 ng/mL); assay: as above; conditions: 72 h
[7] = tested on: NK-YS (IL-2 2.5 ng/mL); assay: as above; conditions: 72 h
[8] = tested on: NKL (IL-2 2.5 ng/mL); assay: as above; conditions: 72 h
[9] = tested on: SNK-6 (IL-2 2.5 ng/mL); assay: as above; conditions: 72 h
[10] = tested on: YT (IL-2 2.5 ng/mL); assay: as above; conditions: 72 h
[11] = tested on: normal primary NK cells, pool 1 (3 donors) (IL-2 2.5 ng/mL); assay: as above; conditions: 72 h
[12] = tested on: normal primary NK cells, pool 1 (3 donors), resting (IL-2 0 ng/mL); assay: as above; conditions: 72 h
[13] = tested on: normal primary NK cells, pool 2 (3 donors) (IL-2 2.5 ng/mL); assay: as above; conditions: 72 h
[14] = tested on: normal primary NK cells, pool 3 (3 donors) (IL-2 2.5 ng/mL); assay: as above; conditions: 72 h
[15] = tested on: normal NK cells expanded with K562-aAPC; assay: drug sensitivity score (DSS) (DSS units); higher = more sensitive; extreme values may be limits of the assay; conditions: 72 h; IL-2 2.5 ng/mL
Procedure: as §1

[16] = tested on: DERL-7 (IL-2 2.5 ng/mL); assay: as above; conditions: 72 h
[17] = tested on: IMC-1 (IL-2 20 ng/mL); assay: as above; conditions: 72 h
[18] = tested on: KAI3 (IL-2 2.5 ng/mL); assay: as above; conditions: 72 h
[19] = tested on: KHYG-1 (IL-2 2.5 ng/mL); assay: as above; conditions: 72 h
[20] = tested on: NK-92 (IL-2 2.5 ng/mL); assay: as above; conditions: 72 h
[21] = tested on: NK-YS (IL-2 2.5 ng/mL); assay: as above; conditions: 72 h
[22] = tested on: NKL (IL-2 2.5 ng/mL); assay: as above; conditions: 72 h
[23] = tested on: SNK-6 (IL-2 2.5 ng/mL); assay: as above; conditions: 72 h
[24] = tested on: YT (IL-2 2.5 ng/mL); assay: as above; conditions: 72 h
[25] = tested on: normal primary NK cells, pool 1 (3 donors) (IL-2 2.5 ng/mL); assay: as above; conditions: 72 h
[26] = tested on: normal primary NK cells, pool 1 (3 donors), resting (IL-2 0 ng/mL); assay: as above; conditions: 72 h
[27] = tested on: normal primary NK cells, pool 2 (3 donors) (IL-2 2.5 ng/mL); assay: as above; conditions: 72 h
[28] = tested on: normal primary NK cells, pool 3 (3 donors) (IL-2 2.5 ng/mL); assay: as above; conditions: 72 h

Cc1cc(C(C)Nc2ccccc2)c2nc(N3CCOCC3)cc(=O)n2c1 (centres undefined) [TGX-221] (max concentration tested 10000 nM)
percent inhibition of viability [%]
Conditions | 1 nM | 10 nM | 100 nM | 1000 nM | 10000 nM
[1] | -0.66 | 0.04 | 5.39 | 4.41 | 32.4
[2] | 0.96 | -2.74 | -1.99 | 1.82 | 27.4
[3] | -6.36 | -5.05 | -4.93 | -4.5 | -0.86
[4] | -3.13 | -6.25 | -6.02 | 4.84 | 23.6
[5] | 2.88 | 11.7 | 4.06 | 7.54 | 14.4
[6] | 2.02 | 4.62 | 5.66 | 32.2 | 31.8
[7] | -2.78 | -1.69 | -1.28 | 2.25 | 27.1
[8] | 2.96 | 0.41 | 10.3 | 15.5 | 28
[9] | 31 | 21.5 | 15.7 | 15.3 | -7.08
[10] | -1.99 | 2.32 | 1.97 | 11.6 | 28.1
[11] | -13.5 | -0.76 | -6.33 | 4.04 | 29.7
[12] | -4.4 | 0.78 | -11.3 | 14.5 | 51.2
[13] | -16.6 | -10.3 | -4.51 | 4.63 | 29.4
[14] | -7.93 | -8.91 | -2.84 | 3.04 | 11.7

Conditions | drug sensitivity score
[15] | 2.2
[16] | 1.37
[17] | 0
[18] | 1.55
[19] | 0
[20] | 6.45
[21] | 1.43
[22] | 2.96
[23] | 0
[24] | 2.28
[25] | 1.93
[26] | 4.9
[27] | 2
[28] | 0.14
